From PubChem BioAssay AID504731 (National Center for Advancing Translational Sciences (NCATS), 2011)

Tested on: mouse liver microsomes, T1/2, LC-MS/MS
Experiment: Allosteric/Competitive Inhibitors of Caspase 1: Metabolic Stability Profiling
Conditions: at 1 µM; hits give high values
Excerpt: The caspases (Cysteine Aspartyl Protease) comprise a related family of 14 dimeric proteases that are critical mediators of apoptosis (programmed cell death) and inflammation. The caspases represent an important class of drug targets for stroke, ischemia, cancer and inflammatory diseases. The goal of this project was to identify compounds that act as selective inhibitors caspase 1. To identify both allosteric and competitive inhibitors of caspase 1, the enzyme was screened using a pro-fluorescent substrate in a qHTS format. […] Mouse liver microsomes are created through broken up endoplasmic reticulum from mouse liver. These liver microsomes contain many drug metabolizing enzymes, such as Cytochome P-450s and flavin-containing monooxygenases. Because metabolism is major way of drug clearance, this is an important result. H Chemical Genomics Center [NCGC] NIH Molecular Libraries Probe Production Centers Network [MLPCN] MLSCN Grant: 1 X01 MH078950-01 PI Name: Dr. James Wells
1uM of compound in incubated in mouse liver microsome; the reference compound is ketanserin. Compounds are incubated at 37 degrees C for different time periods: 0, 5, 15, 30, 45, and 60 minutes. Samples are analyzed with LC-MS/MS.

`CC(C)(C)[C@H](NC(=O)c1ccc(N)c(Cl)c1)C(=O)N1CCC[C@H]1C(=O)N[C@H](C#N)CC(=O)O` gave a half-life of 3.43 h.
